Assay results reported in patent publication US6630128B1, “Porphyrin derivatives their use in photodynamic therapy and medical devices containing them” (Destiny Pharma Limited, priority 1999, dated 2003).
Like-named read-outs stand apart in the source and are kept apart here.

Key:
[1] = Fluorescence quantum yields (corrected emission spectra, relative to TPP); format: physicochemical; conditions: excitation wavelength 355 nm, emission 550-800 nm
Description: Mass spectra were recorded on a Finnigan MAT TSQ 700 triple quadrupole mass spectrometer equipped with an […]. The matrix-assisted laser desorption/ionization mass spectra of the porphyrins were obtained using a dithranol matrix. FAB-MS spectra were obtained using a 3-nitrobenzyl alcohol (NOBA) matrix. ^1H-NMR spectra were measured at 60 MHz on a Jeol JNM-PMX60 spectrometer, at 270 MHz on a Jeol EX 270 spectrometer and at 300 MHx on a Varian Gemini-300 spectrometer in CDCl3 using TMS as an internal reference. Ultraviolet/visible spectra of solutions of compounds in tetrahydrofuran (THF) or toluene were measured using a Hitachi U-3000 spectrophotometer or a ATI-Unicam UV-2 spectrophotometer. Reflectance-absorbance infra red (RAIR) spectra were recorded on a BIO-RAD FTS 165 spectrophotometer. Fluorescence emission spectra were recorded using a Spex Fluorolog 3 spectrophotometer at an excitation wavelength of 355 nm, emission at 550 to 800 nm, with a bandpass of 2 nm.
The emission spectra were recorded using a Spex Fluorolog 3, excitation wavelength=355 nm, emission 550-800 nm, with a bandpass of 2 nm. A spectrum was recorded for each of the title compounds of Examples 67 to 81.
The fluorescence quantum yield for each of the title compounds of Examples 67 to 81 was determined by measuring the integral of the corrected emission spectra for each compound and calculated relative to TPP=0.11 (Handbook of Photochemistry Ed 2, Murov, Carmichael and Hug, Dekker 1993). The fluorescence quantum yield for each of the title compounds of Examples 67 to 81 are listed in Table 1; values for Zn TPP and Mg TPP are included in Table 1 for reference but they were not measured in this work.

[2] = Singlet oxygen quantum yields (singlet oxygen phosphorescence at 1270 nm); format: physicochemical; conditions: for quantum yield of singlet oxygen production, ΦΔ (cross-calibration of reference materials): cross-calibrated against TPP ΦΔ=0.58, present work
Description: The singlet oxygen quantum yields were determined by the direct measurement of singlet oxygen phosphorescence at 1270 nm. Samples were excited using the third harmonic of a Q-switched Nd:YAG (neodymium: yttrium-aluminium-garnet) Spectra Physics GCR-150-10 laser, operating at an excitation wavelength of 355 nm. A small fraction of the laser output was passed through a solution state filter containing aqueous cobalt (II) sulphate (CoSO4) to remove residual 532 and 1064 nm radiation and then down a 8 mm diameter liquid light guide (Oriel). For the measurements the end of the light guide was held against a 1 cm×1 cm fluorescence cuvette (Hellma) holding the sample. During the course of the experiments the incident laser energy for each measurement was determined using a pyroelectric detector held behind the sample. This detector was calibrated at the start of the experiment using a second calibrated energy meter (Gentec ED100). The laser energy was adjusted by placing cells containing aqueous sodium nitrite between the CoSO4 filter and the light guide. Typical pulse energies used were in the range of 25-500 μJ per pulse. Shot to shot noise was estimated to be <10% and sets of 20 shots gave an average value within <3%.
Phosphorescence from the sample was collected and passed through an interference filter centred at 1270 nm available from (Infra Red Engineering Ltd) and then focused onto the active area of a liquid nitrogen cooled germanium photodiode (North Coast EO-817P). The output from this device was AC coupled to a digital oscilloscope (Tektronix TDS-320) which digitised and averaged the transients. Typically 20 laser shots were used for each sample. The averaged data was transferred to a PC where it was stored and analysed.
A stock solution of each of the title compounds of Examples 67 to 81 was prepared by dissolving a small sample of the respective title compound in approximately 5 ml of toluene (Fisher Scientific, Analytical grade). The exact concentrations of the stock solution was not determined.
A working solution of each of the title compounds of Examples 67 to 81 was prepared by diluting the respective stock solution with toluene to give an absorbance of 0.100±0.005 at 355 nm when placed in a ultraviolet/visible spectrometer (ATI-Unicam UV-2) compared to a reference cell containing the pure toluene solvent. The ultraviolet/visible spectrum of each sample was also recorded over the range 300-700 nm.
All of the data were recorded at ambient temperature, 20-23° C., and the solutions were aerated. The singlet oxygen emission decay was recorded for each sample using 5 laser energies and the data for each measurement were fitted to an exponential decay of the form I(t)=A.exp(−t/τ), where I(t) is the measured intensity of singlet oxygen phosphorescence at time t, A is the intensity extrapolated back to t=0 (ie when the laser fires), and τ is the lifetime of singlet oxygen. A typical decay for the title compound of Example 78 in toluene excited at 355 nm using a pulse energy of 365 μJ, where A=19.6 and τ=27.8 μs, is shown in FIG. 2.
A plot of A versus the incident laser energy was drawn for each sample and the slope determined. The slope of such a graph is proportional to the singlet oxygen quantum yield. An example of a plot showing the linear relationship between the singlet oxygen emission intensity and the laser energy for the title compound of Example 78 and meso-tetraphenylporphyrin (TPP) is shown in FIG. 3.
The experiments were carried out using batches of 5 samples of the working solution of each of the title compounds of 67 to 81 plus one reference sample meso-tetraphenylporphyrin (TPP). Each run was repeated at least once. The data sets obtained for each sample were within ±5% of the mean value.
The dominant sources of error in the experiment include the shot-to-shot fluctuations in the laser and the difference in absorbances of the samples at the excitation wavelength. The values have an error of ±10%. […]

[3] = reference values from Handbook of Photochemistry Ed 2; not measured in this work; cited from earlier work
[4] = literature values (Rossbroich et al. 1985; Wilkinson et al. 1993); cited from earlier work

Quantum yield of fluorescence, relative to TPP = 0.11 [1]	Compound	ΦΔ (singlet oxygen quantum yield) ([2]; aerated toluene, excitation 355 nm, 20-23° C., relative to TPP ΦΔ=0.58)	τ, lifetime of singlet oxygen ([2]; toluene, excited at 355 nm, pulse energy 365 μJ (FIG. 2)) [μs]	Quantum yield of fluorescence, relative to TPP = 0.11 [3]	quantum yield of singlet oxygen production, ΦΔ, literature value [4]	quantum yield of singlet oxygen production, ΦΔ (cross-calibration of reference materials) [2]
0.04	C=CCCOCCCCCCCCCCCCOc1ccc(-c2c3nc(c(-c4cc(OCCCCCC)cc(OCCCCCC)c4)c4ccc([n-]4)c(-c4cc(OCCCCCC)cc(OCCCCCC)c4)c4nc(c(-c5cc(OCCCCCC)cc(OCCCCCC)c5)c5ccc2[n-]5)C=C4)C=C3)cc1.[Zn+2] [Example 78, 5-[4-(12-but-3-Enyloxy-dodecyloxy)-phenyl]-10,15,20-tris-(3,5-dihexyloxy-phenyl)-porphyrinato Zinc]	0.78 ± 0.08	27.8			
	C1=Cc2nc1c(-c1ccccc1)c1ccc([n-]1)c(-c1ccccc1)c1nc(c(-c3ccccc3)c3ccc([n-]3)c2-c2ccccc2)C=C1.[Mg+2] [Mg TPP, magnesium tetraphenylporphyrin]			0.15		
	C1=Cc2nc1c(-c1ccccc1)c1ccc([nH]1)c(-c1ccccc1)c1nc(c(-c3ccccc3)c3ccc([nH]3)c2-c2ccccc2)C=C1 [TPP, meso-tetraphenylporphyrin]			0.11	0.58	
	C1=Cc2nc1c(-c1ccccc1)c1ccc([n-]1)c(-c1ccccc1)c1nc(c(-c3ccccc3)c3ccc([n-]3)c2-c2ccccc2)C=C1.[Zn+2] [Zn TPP, zinc tetraphenylporphyrin]			0.04	0.73	0.77±0.07
	[Zn+2].c1ccc2c(c1)-c1nc-2nc2[n-]c(nc3nc([n-]c4nc(n1)-c1ccccc1-4)-c1ccccc1-3)c1ccccc21 [zinc phthalocyanine, reference compound]				0.50	0.46±0.05
